Each structure is given as a SMILES string.

This experiment concerns the target T1, Human M4 (Homo sapiens, UniProt P08173).
T1 construct: expressed in transfected cells; host or cells: CHO-K1 (ATCC), stably expressing hM4 and Gqi5
T1 sequence (P08173 1-479): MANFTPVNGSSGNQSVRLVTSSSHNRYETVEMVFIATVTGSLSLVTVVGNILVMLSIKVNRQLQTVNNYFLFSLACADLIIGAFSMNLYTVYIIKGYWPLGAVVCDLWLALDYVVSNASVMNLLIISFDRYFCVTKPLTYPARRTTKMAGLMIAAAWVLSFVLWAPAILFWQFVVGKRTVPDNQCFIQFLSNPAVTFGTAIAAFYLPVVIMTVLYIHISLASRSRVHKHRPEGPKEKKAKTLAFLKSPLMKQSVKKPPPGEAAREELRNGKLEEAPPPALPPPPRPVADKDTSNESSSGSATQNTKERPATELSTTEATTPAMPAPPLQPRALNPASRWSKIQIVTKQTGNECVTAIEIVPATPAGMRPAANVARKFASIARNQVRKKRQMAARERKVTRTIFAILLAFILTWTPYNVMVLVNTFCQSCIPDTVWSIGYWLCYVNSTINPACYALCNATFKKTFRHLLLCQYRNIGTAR
The experiment can be described thus: mAChR M4 cell-based functional assay (calcium flux, potentiation of EC20 acetylcholine response) in hM4-Gqi5 CHO-K1 cells. The note with it: for Emax at 30 µM: % ACh maximum at 30 μM, human M4 CHO-K1 cells; for EC50: CHO-K1 cells transfected with human M4 and Gqi5, positive allosteric modulator activity, EC20 acetylcholine. The method, then: Human M4 cDNA, along with the chimeric G protein Gqi5, were transfected into Chinese hamster ovary (CHO-K1) cells purchased from the American Type Culture Collection using commercially available Lipofectamine 2000 transfection reagent (Dalby, B. et al., Methods (2004) 33(2), 95-103). hM4-Gqi5 cells were grown in Ham's F-12 medium containing 10% heat-inactivated fetal bovine serum (FBS), 20 mM HEPES, 50 μg/mL G418 sulfate (CAS #108321-42-2), and 500 μg/mL Hygromycin B. rM4-Gqi5 cells were grown in DMEM containing 10% heat-inactivated FBS, 20 mM HEPES, 400 μg/mL G418 sulfate, and 500 μg/mL Hygromycin B.
For high throughput measurement of agonist-evoked increases in intracellular calcium, CHO-K1 cells stably expressing muscarinic receptors were plated in growth medium lacking G418 sulfate and hygromycin at 15,000 cells/20 μL/well in Greiner 384-well black-walled, tissue culture (TC)-treated, clear-bottom plates (VWR). Cells were incubated overnight at 37° C. and 5% CO2. The next day, cells were washed using an ELX 405 (BioTek) with assay buffer; the final volume was then aspirated to 20 μL. Next, 20 μL of a 2.3 μM stock of Fluo-4/acetoxymethyl ester (Invitrogen, Carlsbad, CA), prepared as a 2.3 mM stock in DMSO and mixed in a 1:1 ratio with 10% (w/v) Pluronic F-127 and diluted in assay buffer, was added to the wells and the cell plates were incubated for 50 minutes at 37° C. and 5% CO2. Dye was removed by washing with the ELX 405 and the final volume was aspirated to 20 μL. Compound master plates were formatted in an 11 point concentration-response curve (CRC) format (1:3 dilutions) in 100% DMSO with a starting concentration of 10 mM using a BRAVO liquid handler (Agilent). Test compound CRCs were then transferred to daughter plates (240 nL) using the Echo acoustic plate reformatter (Labcyte, Sunnyvale, CA) and then diluted into assay buffer (40 μL) to a 2× stock using a Thermo Fisher Combi (Thermo Fisher Scientific, Waltham, MA).
Calcium flux was measured using the Functional Drug Screening System (FDSS) 6000 or 7000 (Hamamatsu Corporation, Tokyo, Japan) as an increase in the fluorescent static ratio. Compounds were applied to cells (20 μL, 2×) using the automated system of the FDSS at 2-4 seconds into the protocol and the data were collected at 1 Hz. […] Agonist activity was analyzed as a concentration-dependent increase in calcium mobilization upon compound addition. Positive allosteric modulator activity was analyzed as a concentration-dependent increase in the EC20 acetylcholine response. With the acetylcholine EC20 set as baseline, the test compound EC50 is determined as the concentration that produces an increase above baseline of 50% of the maximum increase in acetylcholine response elicted by the test compound. Antagonist activity was analyzed as a concentration-dependent decrease in the EC80 acetylcholine response. Concentration-response curves were generated using a four-parameter logistical equation in XLFit curve fitting software (IDBS, Bridgewater, NJ) for Excel (Microsoft, Redmond, WA) or Prism (GraphPad Software, Inc., San Diego, CA).
Compounds were synthesized as described above. Activity (EC50 and Emax) was determined in the mAChR M4 cell-based functional assay as described above and the data are shown in Table 5. The compound numbers correspond to the compound numbers used in Examples 1-13 and Tables 1, 2, and 3.
For orientation: Calcium assays in cells follow changes in intracellular calcium, usually with a dye or a luminescent sensor.

As a reminder, the Emax is the maximal effect, on the per cent scale that the assay sets. A word on the EC50: it is the concentration giving half of the maximal effect. `Cc1nn(C)cc1-c1cnc2c(c1)CN(c1ncnc3c(C)csc13)CC2` [Compound 23, 4-[3-(1,3-dimethylpyrazol-4-yl)-7,8-dihydro-5H-1,6-naphthyridin-6-yl]-7-methyl-thieno[3,2-d]pyrimidine]: the Emax at 30 µM turned out to be 59% and the EC50 was determined as 560 nM.

For `Cc1csc2c(N3CCc4ncc(N5CCOc6ncccc65)cc4C3)ncnc12` [Compound 24, 1-[6-(7-methylthieno[3,2-d]pyrimidin-4-yl)-7,8-dihydro-5H-1,6-naphthyridin-3-yl]-2,3-dihydropyrido[2,3-b][1,4]oxazine], the Emax at 30 µM came out at 70% and the EC50 is 220 nM.

As for `Cc1csc2ncnc(N3CCc4ncc(N5CCCn6nccc65)cc4C3)c12` [Compound 25, 4-[3-(6,7-dihydro-5H-pyrazolo[1,5-a]pyrimidin-4-yl)-7,8-dihydro-5H-1,6-naphthyridin-6-yl]-5-methyl-thieno[2,3-d]pyrimidine], the Emax at 30 µM came out at 96% and the EC50 worked out at 60 nM.

Regarding `Cc1csc2ncnc(N3CCc4ncc(-c5cnn(C6CC6)c5)cc4C3)c12` [Compound 26, 4-[3-(1-cyclopropylpyrazol-4-yl)-7,8-dihydro-5H-1,6-naphthyridin-6-yl]-5-methyl-thieno[2,3-d]pyrimidine], the Emax at 30 µM was determined as 75% and the EC50 was determined as 280 nM.

As to `Cc1ccc(F)c(Oc2cnc3c(c2)CN(c2ncnc4ccsc24)CC3)c1` [Compound 27, 4-[3-(2-fluoro-5-methyl-phenoxy)-7,8-dihydro-5H-1,6-naphthyridin-6-yl]thieno[3,2-d]pyrimidine], the Emax at 30 µM was 36% and the EC50 was determined as 2380 nM.

As to `Cc1nn(C)cc1-c1cnc2c(c1)CN(c1ncnc3scc(C)c13)CC2` [Compound 28, 4-[3-(1,3-dimethylpyrazol-4-yl)-7,8-dihydro-5H-1,6-naphthyridin-6-yl]-5-methyl-thieno[2,3-d]pyrimidine], the Emax at 30 µM was 78% and the EC50 is 90 nM.

For the compound `FC(F)(F)c1cnc2c(c1)CN(c1ncnc3scc(Br)c13)CC2` [Compound 29, 5-bromo-4-[3-(trifluoromethyl)-7,8-dihydro-5H-1,6-naphthyridin-6-yl]thieno[2,3-d]pyrimidine], the Emax at 30 µM was found to be 74% and the EC50 came out at 310 nM.

Consider `FC(F)(F)c1cnc2c(c1)CN(c1ncnc3sc(Br)cc13)CC2` [Compound 30, 6-bromo-4-[3-(trifluoromethyl)-7,8-dihydro-5H-1,6-naphthyridin-6-yl]thieno[2,3-d]pyrimidine], for which the Emax at 30 µM was determined as 88% and the EC50 stood at 80 nM.

Turning to `CC(C)c1cc2c(N3CCc4ncc(N5CCCn6nccc65)cc4C3)ncnc2s1` [Compound 31, 4-[3-(6,7-dihydro-5H-pyrazolo[1,5-a]pyrimidin-4-yl)-7,8-dihydro-5H-1,6-naphthyridin-6-yl]-6-isopropyl-thieno[2,3-d]pyrimidine], the Emax at 30 µM is 58% and the EC50 worked out at 440 nM.

Turning to `Cc1csc2ncnc(N3CCc4ncc(Oc5ccccc5F)cc4C3)c12` [Compound 32, 4-[3-(2-fluorophenoxy)-7,8-dihydro-5H-1,6-naphthyridin-6-yl]-5-methyl-thieno[2,3-d]pyrimidine], the Emax at 30 µM is 59% and the EC50 was 560 nM.

`Fc1ccccc1Oc1cnc2c(c1)CN(c1ncnc3sccc13)CC2` [Compound 33, 4-[3-(2-fluorophenoxy)-7,8-dihydro-5H-1,6-naphthyridin-6-yl]thieno[2,3-d]pyrimidine]: the Emax at 30 µM turned out to be 46% and the EC50 amounted to 200 nM.

Take `Cn1nccc1Nc1cnc2c(c1)CN(c1ncnc3sccc13)CC2` [Compound 34, N-(2-methylpyrazol-3-yl)-6-thieno[2,3-d]pyrimidin-4-yl-7,8-dihydro-5H-1,6-naphthyridin-3-amine]: the Emax at 30 µM is 55% and the EC50 stood at 100 nM.

Take `Cc1noc(C)c1-c1cnc2c(c1)CN(c1ncnc3sc(C(C)C)cc13)CC2` [Compound 35, 4-[6-(6-isopropylthieno[2,3-d]pyrimidin-4-yl)-7,8-dihydro-5H-1,6-naphthyridin-3-yl]-3,5-dimethyl-isoxazole]: the Emax at 30 µM turned out to be 22% and the EC50 amounted to 1230 nM.

In the case of `[2H]c1csc2ncnc(N3CCc4ncc(C(F)(F)F)cc4C3)c12` [Compound 36, 5-deuterio-4-[3-(trifluoromethyl)-7,8-dihydro-5H-1,6-naphthyridin-6-yl]thieno[2,3-d]pyrimidine], the maximum response (Emax) at 30 µM is 78% and the EC50 came to 160 nM.

Turning to `FC(F)(F)c1cnc2c(c1)CN(c1ncnc3scc(C4CC4)c13)CC2` [Compound 37, 5-cyclopropyl-4-[3-(trifluoromethyl)-7,8-dihydro-5H-1,6-naphthyridin-6-yl]thieno[2,3-d]pyrimidine], the Emax at 30 µM is 22% and the EC50 was determined as 1390 nM.

In the case of `Cc1coc2ncnc(N3CCc4ncc(-c5cnn(C6CC6)c5)cc4C3)c12` [Compound 38, 4-[3-(1-cyclopropylpyrazol-4-yl)-7,8-dihydro-5H-1,6-naphthyridin-6-yl]-5-methyl-furo[2,3-d]pyrimidine], the Emax at 30 µM stood at 83% and the EC50 came out at 60 nM.

`Cc1coc2ncnc(N3CCc4ncc(Nc5cccnc5F)cc4C3)c12` [Compound 39, N-(2-fluoro-3-pyridyl)-6-(5-methylfuro[2,3-d]pyrimidin-4-yl)-7,8-dihydro-5H-1,6-naphthyridin-3-amine]: the Emax at 30 µM turned out to be 94% and the EC50 was 80 nM.

For `Cc1noc2ncnc(N3CCc4ncc(C(F)(F)F)cc4C3)c12` [Compound 40, 3-methyl-4-[3-(trifluoromethyl)-7,8-dihydro-5H-1,6-naphthyridin-6-yl]isoxazolo[5,4-d]pyrimidine], the Emax at 30 µM turned out to be 94% and the EC50 came to 710 nM.

For the compound `Cc1coc2ncnc(N3CCc4ncc(C(F)(F)F)cc4C3)c12` [Compound 41, 5-methyl-4-[3-(trifluoromethyl)-7,8-dihydro-5H-1,6-naphthyridin-6-yl]furo[2,3-d]pyrimidine], the Emax at 30 µM was 86% and the EC50 stood at 50 nM.

Regarding `Cc1coc2ncnc(N3CCc4ncc(N5CCCn6nccc65)cc4C3)c12` [Compound 42, 4-[3-(6,7-dihydro-5H-pyrazolo[1,5-a]pyrimidin-4-yl)-7,8-dihydro-5H-1,6-naphthyridin-6-yl]-5-methyl-furo[2,3-d]pyrimidine], the Emax at 30 µM is 99% and the EC50 was 10 nM.

For the compound `Cc1nn(C)cc1-c1cnc2c(c1)CN(c1ncnc3onc(C)c13)CC2` [Compound 43, 4-[3-(1,3-dimethylpyrazol-4-yl)-7,8-dihydro-5H-1,6-naphthyridin-6-yl]-3-methyl-isoxazolo[5,4-d]pyrimidine], the Emax at 30 µM turned out to be 80% and the 50% effective concentration (EC50) was found to be 590 nM.

Regarding `Cc1nn(C)cc1-c1cnc2c(c1)CN(c1ncnc3occ(C)c13)CC2` [Compound 44, 4-[3-(1,3-dimethylpyrazol-4-yl)-7,8-dihydro-5H-1,6-naphthyridin-6-yl]-5-methyl-furo[2,3-d]pyrimidine], the maximal response (Emax) at 30 µM stood at 95% and the EC50 was determined as 120 nM.

The record behind these values is patent US20250017935A1, “7,8-DIHYDRO-5H-1,6-NAPHTHYRIDINE DERIVATIVES AS POSITIVE ALLOSTERIC MODULATORS OF THE MUSCARINIC ACETYLCHOLINE RECEPTOR M4 FOR TREATING NEUROLOGICAL AND PSYCHIATRIC DISORDERS” (Vanderbilt University, priority 2021, published 2025).
